Source: US20090036448A1, “PYRIMIDINE DERIVATIVES AND METHODS OF TREATMENT RELATED TO THE USE THEREOF” (TAISHO PHARMECUTICAL CO., LTD., priority 2004, published 2009)

What follows are compounds tested against MCH receptor (Homo sapiens, UniProt Q99705) (assay: Receptor binding assay with Radiolabelled MCH Ligand). Conditions: class by percent of control at 10^-7 M or IC50.
Design: expressed in transfected cells; host or cells: 293 cells (human kidney, ATCC), transient transfection; crude membranes
Summary of the method: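 This was a filtration radioligand displacement assay: compounds, first tested at 1 and 0.1 μM and then over a range, inhibited binding of a labelled MCH ligand to transfected 293-cell membranes at room temperature for 60–120 min. Specific binding excluded a cold-MCH nonspecific signal. Ki was derived from IC50 via Cheng-Prusoff, using an independently measured KD.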

MCH receptor, sequence (Q99705 whole entry): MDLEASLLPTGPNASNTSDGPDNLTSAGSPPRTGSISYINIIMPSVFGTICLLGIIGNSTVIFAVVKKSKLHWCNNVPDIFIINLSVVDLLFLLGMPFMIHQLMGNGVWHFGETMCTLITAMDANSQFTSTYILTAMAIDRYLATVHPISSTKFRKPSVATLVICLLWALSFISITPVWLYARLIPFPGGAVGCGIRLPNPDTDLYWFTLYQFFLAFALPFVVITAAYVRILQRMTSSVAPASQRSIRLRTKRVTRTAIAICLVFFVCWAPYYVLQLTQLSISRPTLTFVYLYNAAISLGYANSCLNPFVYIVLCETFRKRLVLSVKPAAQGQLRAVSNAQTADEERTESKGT

SMILES | class
Cc1nc(N[C@H]2CC[C@@H](NC(=O)c3ccc(S(C)(=O)=O)s3)CC2)cc(N(C)C)n1 [compound 346] | 3 (Class 3: The value of percent of control at 10^−7 M was more than 60% or the value of IC50 was more than 200 nM.)
Cc1nc(N[C@H]2CC[C@@H](NC(=O)[C@@H]3CCCN3S(=O)(=O)c3ccc(C(C)(C)C)cc3)CC2)cc(N(C)C)n1 (relative stereo) [compound 277] | 3 (Class 3: The value of percent of control at 10^−7 M was more than 60% or the value of IC50 was more than 200 nM.)
Cc1nc(N[C@H]2CC[C@@H](NS(=O)(=O)c3cccc(Br)c3)CC2)cc(N(C)C)n1 [compound 500] | 3 (Class 3: The value of percent of control at 10^−7 M was more than 60% or the value of IC50 was more than 200 nM.)
Cc1nc(N[C@H]2CC[C@@H](NC(=O)c3ccccc3COc3ccccc3)CC2)cc(N(C)C)n1 [compound 331, N-(cis-4-{[6-(dimethylamino)-2-methylpyrimidin-4-yl]amino}cyclohexyl)-[(2-phenyloxy)methyl]benzamide] | 3 (Class 3: The value of percent of control at 10^−7 M was more than 60% or the value of IC50 was more than 200 nM.)
Cc1nc(N[C@H]2CC[C@@H](NC(=O)Nc3c(Cl)cc(Cl)cc3Cl)CC2)cc(N(C)C)n1 [compound 430] | 3 (Class 3: The value of percent of control at 10^−7 M was more than 60% or the value of IC50 was more than 200 nM.)
Cc1nc(N[C@H]2CC[C@@H](NS(=O)(=O)c3c(C)nn(C)c3C)CC2)cc(N(C)C)n1 [compound 513] | 3 (Class 3: The value of percent of control at 10^−7 M was more than 60% or the value of IC50 was more than 200 nM.)
Cc1cc(C)c(C(=O)C(=O)N[C@H]2CC[C@@H](Nc3cc(N(C)C)nc(C)n3)CC2)c(C)c1 [compound 350] | 3 (Class 3: The value of percent of control at 10^−7 M was more than 60% or the value of IC50 was more than 200 nM.)
Cc1nc(N[C@H]2CC[C@@H](NC(=O)c3ccccc3CCc3ccccc3)CC2)cc(N(C)C)n1 [compound 305] | 3 (Class 3: The value of percent of control at 10^−7 M was more than 60% or the value of IC50 was more than 200 nM.)
Cc1nc(N[C@H]2CC[C@@H](NC(=S)Nc3c(Br)cc(Br)cc3Br)CC2)cc(N(C)C)n1 [compound 447, N-(cis-4-{[6-(dimethylamino)-2-methylpyrimidin-4-yl]amino}cyclohexyl)-N′-(2,4,6-tribromophenyl)thiourea] | 1 (Class 1: The value of percent of control at 10^−7 M was less than 40% or the value of IC50 was less than 50 nM.)
Cc1nc(N[C@H]2CC[C@@H](NC(=O)Cc3ccccc3Br)CC2)cc(N(C)C)n1 [compound 264] | 3 (Class 3: The value of percent of control at 10^−7 M was more than 60% or the value of IC50 was more than 200 nM.)
Cc1nc(N[C@H]2CC[C@@H](NC(=O)C(C)(C)Oc3ccc(Cl)cc3)CC2)cc(N(C)C)n1 [compound 268] | 3 (Class 3: The value of percent of control at 10^−7 M was more than 60% or the value of IC50 was more than 200 nM.)
Cc1ccc(-c2cc(C(=O)N[C@H]3CC[C@@H](Nc4cc(N(C)C)nc(C)n4)CC3)cs2)cc1 [compound 288] | 3 (Class 3: The value of percent of control at 10^−7 M was more than 60% or the value of IC50 was more than 200 nM.)
Cc1nc(N[C@H]2CC[C@@H](NCCOc3c(F)c(F)c(F)c(F)c3F)CC2)cc(N(C)C)n1 [compound 389] | 3 (Class 3: The value of percent of control at 10^−7 M was more than 60% or the value of IC50 was more than 200 nM.)
Cc1nc(N[C@H]2CC[C@@H](NC(=S)Nc3ccc(N(C)C)c4ccccc34)CC2)cc(N(C)C)n1 [compound 440] | 3 (Class 3: The value of percent of control at 10^−7 M was more than 60% or the value of IC50 was more than 200 nM.)
COC(=O)c1ccccc1S(=O)(=O)N[C@H]1CC[C@@H](Nc2cc(N(C)C)nc(C)n2)CC1 [compound 481] | 3 (Class 3: The value of percent of control at 10^−7 M was more than 60% or the value of IC50 was more than 200 nM.)
Cc1nc(N[C@H]2CC[C@@H](NC(=O)/C=C/c3ccccc3)CC2)cc(N(C)C)n1 [compound 210] | 3 (Class 3: The value of percent of control at 10^−7 M was more than 60% or the value of IC50 was more than 200 nM.)
Cc1nc(N[C@H]2CC[C@@H](NC(=O)Cc3ccccc3C(=O)Nc3ccc(C(C)C)cc3)CC2)cc(N(C)C)n1 [compound 296] | 3 (Class 3: The value of percent of control at 10^−7 M was more than 60% or the value of IC50 was more than 200 nM.)
Cc1nc(N[C@H]2CC[C@@H](NC(=O)C=C3c4ccccc4-c4ccccc43)CC2)cc(N(C)C)n1 [compound 352] | 3 (Class 3: The value of percent of control at 10^−7 M was more than 60% or the value of IC50 was more than 200 nM.)

SMILES | class
COC(=O)c1cc(S(=O)(=O)N[C@H]2CC[C@@H](Nc3cc(N(C)C)nc(C)n3)CC2)oc1C [compound 508] | 3 (Class 3: The value of percent of control at 10^−7 M was more than 60% or the value of IC50 was more than 200 nM.)
Cc1nc(N[C@H]2CC[C@@H](NC(=O)c3ccc(Br)cc3)CC2)cc(N(C)C)n1 [compound 205] | 3 (Class 3: The value of percent of control at 10^−7 M was more than 60% or the value of IC50 was more than 200 nM.)
Cc1nc(N[C@H]2CC[C@@H](NC(=O)c3scc(S(=O)(=O)c4ccc(Cl)cc4)c3C)CC2)cc(N(C)C)n1 [compound 216] | 3 (Class 3: The value of percent of control at 10^−7 M was more than 60% or the value of IC50 was more than 200 nM.)
COc1ccc(Oc2ccc([N+](=O)[O-])cc2C(=O)N[C@H]2CC[C@@H](Nc3cc(N(C)C)nc(C)n3)CC2)cc1 [compound 230, N-(cis-4-{[6-(dimethylamino)-2-methylpyrimidin-4-yl]amino}cyclohexyl)-2-(4-methoxyphenoxy)-5-nitrobenzamide] | 2 (Class 2: The value of percent of control at 10^−7 M was from 40% to 60% or the value of IC50 was from 50 nM to 200 nM.)
Cc1nc(N[C@H]2CC[C@@H](NS(=O)(=O)Cc3ccccc3)CC2)cc(N(C)C)n1 [compound 476] | 3 (Class 3: The value of percent of control at 10^−7 M was more than 60% or the value of IC50 was more than 200 nM.)
Cc1nc(N[C@H]2CC[C@@H](NC(=O)c3ccno3)CC2)cc(N(C)C)n1 [compound 223] | 3 (Class 3: The value of percent of control at 10^−7 M was more than 60% or the value of IC50 was more than 200 nM.)
Cc1nc(N[C@H]2CC[C@@H](NC(=O)c3ccc4nonc4c3)CC2)cc(N(C)C)n1 [compound 207, N-(cis-4-{[6-(dimethylamino)-2-methylpyrimidin-4-y]amino}cyclohexyl)-2,1,3-benzoxadiazole-5-carboxamide] | 3 (Class 3: The value of percent of control at 10^−7 M was more than 60% or the value of IC50 was more than 200 nM.)
Cc1nc(N[C@H]2CC[C@@H](NC(=O)c3ccc(I)o3)CC2)cc(N(C)C)n1 [compound 285, N-(cis-4-{[6-(dimethylamino)-2-methylpyrimidin-4-yl]amino}cyclohexyl)-5-iodo-2-furamide] | 3 (Class 3: The value of percent of control at 10^−7 M was more than 60% or the value of IC50 was more than 200 nM.)
Cc1nc(N[C@H]2CC[C@@H](NC(=O)Cc3ccc(F)cc3)CC2)cc(N(C)C)n1 [compound 250] | 3 (Class 3: The value of percent of control at 10^−7 M was more than 60% or the value of IC50 was more than 200 nM.)
COC(=O)c1scc(C)c1NC(=S)N[C@H]1CC[C@@H](Nc2cc(N(C)C)nc(C)n2)CC1 [compound 451] | 3 (Class 3: The value of percent of control at 10^−7 M was more than 60% or the value of IC50 was more than 200 nM.)
Cc1nc(N[C@H]2CC[C@@H](NC(=O)c3cccc(C(F)(F)F)c3)CC2)cc(N(C)C)n1 [compound 241, N-(cis-4-{[6-(dimethylamino)-2-methylpyrimidin-4-yl]amino}cyclohexyl)-3-(trifluoromethyl)benzamide] | 3 (Class 3: The value of percent of control at 10^−7 M was more than 60% or the value of IC50 was more than 200 nM.)
Cc1nc(N[C@H]2CC[C@@H](NC(=O)c3ccc(OCc4ccccc4)cc3)CC2)cc(N(C)C)n1 [compound 329] | 3 (Class 3: The value of percent of control at 10^−7 M was more than 60% or the value of IC50 was more than 200 nM.)
Cc1nc(N[C@H]2CC[C@@H](NC(=O)Nc3ccc(Cl)cc3C)CC2)cc(N(C)C)n1 [compound 418, N-(4-chloro-2-methylphenyl)-N′-(cis-4-{[6-(dimethylaminio)-2-methylpyrimidin-4-yl]amino}cyclohexyl)urea] | 3 (Class 3: The value of percent of control at 10^−7 M was more than 60% or the value of IC50 was more than 200 nM.)
Cc1nc(N[C@H]2CC[C@@H](NC(=O)CC3CCCC3)CC2)cc(N(C)C)n1 [compound 257] | 3 (Class 3: The value of percent of control at 10^−7 M was more than 60% or the value of IC50 was more than 200 nM.)
Cc1nc(N[C@H]2CC[C@@H](NC(=O)c3c(-c4c(F)cccc4Cl)noc3C)CC2)cc(N(C)C)n1 [compound 215, 3-(2-chloro-6-fluorophenyl)-N-(cis-4-{[6-(dimethylamino)-2-methylpyrimidin-4-yl]amino}cyclohexyl)-5-methylisoxazole-4-carboxamide] | 1 (Class 1: The value of percent of control at 10^−7 M was less than 40% or the value of IC50 was less than 50 nM.)
Cc1nc(N[C@H]2CC[C@@H](NC(=O)C3C[C@H]3c3ccccc3)CC2)cc(N(C)C)n1 (stereo partly drawn) [compound 236] | 3 (Class 3: The value of percent of control at 10^−7 M was more than 60% or the value of IC50 was more than 200 nM.)
Cc1nc(N[C@H]2CC[C@@H](NC(=O)Cc3ccc(SC(F)(F)F)cc3)CC2)cc(N(C)C)n1 [compound 315] | 3 (Class 3: The value of percent of control at 10^−7 M was more than 60% or the value of IC50 was more than 200 nM.)
Cc1nc(N[C@H]2CC[C@@H](NC(=O)Cc3c[nH]c4ccc(OCc5ccccc5)cc34)CC2)cc(N(C)C)n1 [compound 318] | 3 (Class 3: The value of percent of control at 10^−7 M was more than 60% or the value of IC50 was more than 200 nM.)
